Reference: publication PMC7948405, “Small-molecule control of neurotransmitter sulfonation” (The Journal of Biological Chemistry, 2020)
pKd: −log10 of the molar value.

Assays:
SULT1A3 [1] = biological target: T1, SULT1A3 (Homo sapiens, UniProt P0DMM9); set-up: method as in PMID 30545938; conditions: saturating inhibitor, cited from earlier work
T1 construct: E. coli–optimized SULT coding regions were inserted into a pGEX-6P expression vector; N-His/GST/MBP triple tag (PreScission-cleavable) (N, cleaved yes); made in house; host or cells: E. coli BL21(DE3)
T1 sequence (P0DMM9 whole entry): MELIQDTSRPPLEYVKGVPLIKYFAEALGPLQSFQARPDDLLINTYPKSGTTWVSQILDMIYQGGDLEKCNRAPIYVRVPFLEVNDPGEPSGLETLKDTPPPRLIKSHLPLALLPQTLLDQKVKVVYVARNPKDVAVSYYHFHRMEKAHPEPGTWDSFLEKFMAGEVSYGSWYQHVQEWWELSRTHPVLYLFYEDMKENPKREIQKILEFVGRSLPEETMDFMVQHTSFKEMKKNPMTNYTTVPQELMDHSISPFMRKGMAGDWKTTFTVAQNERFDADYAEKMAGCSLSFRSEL

SULT1A3 [2] = biological target: T1, SULT1A3; assay: Pre-steady-state (stopped-flow fluorescence) binding of PAP to SULT1A3 complexes; conditions: for pKd: read-out: Kd (koff/kon)
Excerpt: Figure 4 The inhibition mechanism. A, equilibrium binding. Binding was monitored via ligand-induced changes in SULT1A3 intrinsic fluorescence (λex = 290 nm, λem = 335 nm). […] Each dot represents the average of three independent titrations. Lines passing through the data represent the outcomes predicted by least-squares fitting of the averaged data to a single-binding-site model. B, representative PAP-binding reaction. PAP binding was monitored using a stopped-flow fluorimeter (λex = 290 nm, λem ≥ 330 nm (cutoff filter)). Reactions were initiated by rapidly mixing (1:1 v/v) a solution containing SULT1A3 (30 nM, dimer), CMP13 (1.0 μM, 100 × Kd), Tam (160 μM, 200 × Kd), KPO4 (50 mM), pH 7.5, 25(±2) °C, with a solution that was identical except that it lacked SULT1A3 and contained PAP (2.0 μM). The average of five independent progress curves shown and the kobs was obtained by fitting the data to a single exponential. C, pre–steady-state binding. PAP binding was monitored as described for panel B. Reactions were initiated by mixing (1:1 v/v) a solution containing SULT1A3 (30 nM, dimer), CMP13 [0 μM (black dots) or 1.0 μM, 100 × Kd (red and blue dots)], Tam [0 μM (black and blue dots) or 160 μM, 200 × Kd (red dots)], KPO4 (50 mM), pH 7.5, 25(±2) °C, with a solution that was identical except that it lacked SULT1A3 and contained PAP at twice the indicated concentrations. Each kobs value was determined in triplicate, and the averaged values are shown. kon and koff are given, respectively, by the slopes and intercepts obtained from linear least-squares fitting of the kobs vs [PAP] plot. PAP, 3′-phosphoadenosine-5′-phosphate; SULT1A3, sulfotransferase 1A3; Tam, 4-hydroxy-tamoxifen.
To resolve this uncertainty, PAP on- and off-rate constants for a series of open and closed complexes were determined using stopped-flow fluorescence. A representative binding reaction can be seen in Fig. 4B. The binding reactions were pseudo-first order in [PAP], and kobs values were obtained by fitting reaction progress curves to a single-exponential equation. On- and off-rate constants (see Table 3) are given by the plot slopes and intercepts.
Pre–steady-state binding of PAP to SULT1A3 was monitored via ligand-induced changes in SULT1A3 fluorescence using an Applied Photophysics SX20 stopped-flow spectrofluorometer. Fluorescence was measured at λex = 290 nm and λem ≥ 330 nm (using a cutoff filter). […] All reactions were pseudo first order with respect to [PAP]. kobs values, determined in triplicate at each PAP concentration, were obtained by least-squares fitting the average of five progress curves to a single-exponential equation. kon and koff, obtained by linear least-squares fitting, are given by the slopes and intercepts of four-point kobs-vs-[PAP] plots.

SULT1A3 [3] = biological target: T1, SULT1A3; assay: Equilibrium binding of PAP to SULT1A3 complexes (intrinsic fluorescence)
Experimental: CMP13 binding to SULT1A3 was monitored via binding-induced changes in SULT1A3 intrinsic fluorescence (λex= 290 nm, λem= 335 nm ([17])). […] PAP binding was determined using the same protocol except that [PAP] was varied and CMP13 was 1.0 μM (100 × Ki). Titrations were performed in triplicate. Data were averaged and least-squares fit using a model that assumes a single binding site per monomer.

[4] = PAP binding to complex E·CMP13, CMP13 1.0 μM
[5] = PAP binding to complex E·CMP13·Tam, CMP13 1.0 μM, Tam 160 μM
[6] = PAP binding to complex E·CMP13·Tam

CC(C)Cc1ccc2cc(CO)ccc2n1 [CMP8]
% Inhibition at saturation (SULT1A3 [1]; in vitro): 54 (3) % | factor by which SULT1A3 turnover is reduced at saturation (SULT1A3 [1]): 2 | turnover at saturation as % of that seen in absence of inhibitor (SULT1A3 [1]): 46%

Nc1ncnc2c1ncn2[C@@H]1O[C@H](COP(=O)(O)O)[C@@H](OP(=O)(O)O)[C@H]1O [PAP, 3′-phosphoadenosine-5′-phosphate]
koff (SULT1A3 [2]; PAP binding to complex E): 2.5 s⁻¹ | kon (SULT1A3 [2]; PAP binding to complex E): 6.9e+06 M⁻¹ s⁻¹ | pKd (SULT1A3 [2]; PAP binding to complex E): 6.44 | koff (SULT1A3 [2]; [4]): 0.18 s⁻¹ | kon (SULT1A3 [2]; [4]): 6.6e+06 M⁻¹ s⁻¹ | pKd (SULT1A3 [2]; PAP binding to complex E·CMP13): 7.54 | koff (SULT1A3 [2]; [5]): 2.3 s⁻¹ | kon (SULT1A3 [2]; [5]): 6.5e+06 M⁻¹ s⁻¹ | pKd (SULT1A3 [2]; [6]): 6.46 | pKd (SULT1A3 [3]; PAP binding to complex E): 6.49 | pKd (SULT1A3 [3]; [4]): 7.51 | pKd (SULT1A3 [3]; [6]): 6.46
